Laboratory results taken from paper PMC10583824, “The rational design of ARUK2007145, a dual inhibitor of the α and γ isoforms of the lipid kinase phosphatidylinositol 5-phosphate 4-kinase (PI5P4K)” (RSC Medicinal Chemistry, 2023).

Experiments:
PI5P4Kα [1] = target: T1, PI5P4Kα (Homo sapiens, UniProt P48426); assay: biochemical
T1 sequence (P48426 1-406): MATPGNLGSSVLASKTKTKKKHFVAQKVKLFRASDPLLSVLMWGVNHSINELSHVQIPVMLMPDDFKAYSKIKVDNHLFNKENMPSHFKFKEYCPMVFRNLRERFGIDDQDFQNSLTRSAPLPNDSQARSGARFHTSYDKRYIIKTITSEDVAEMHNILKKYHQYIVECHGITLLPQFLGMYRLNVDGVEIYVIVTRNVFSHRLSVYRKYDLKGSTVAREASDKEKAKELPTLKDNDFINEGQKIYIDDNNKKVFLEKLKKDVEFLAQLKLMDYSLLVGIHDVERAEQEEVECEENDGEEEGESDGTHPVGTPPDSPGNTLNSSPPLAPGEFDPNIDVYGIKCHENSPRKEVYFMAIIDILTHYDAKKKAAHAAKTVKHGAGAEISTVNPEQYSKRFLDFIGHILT

PI5P4Kγ+ [2] = target: T2, PI5P4Kγ+ (Homo sapiens, UniProt Q8TBX8, D138G/D197E/E133P/E135D/E153T/E196G/G139A/N195G/S132L/S134N); assay: biochemical
T2 sequence (Q8TBX8 with tags, fused parts or gaps INS131LPN/S132D/E133S/S134Q/E135A/G136R/D138G/G139A/E153T/N195G/E196G/D197E): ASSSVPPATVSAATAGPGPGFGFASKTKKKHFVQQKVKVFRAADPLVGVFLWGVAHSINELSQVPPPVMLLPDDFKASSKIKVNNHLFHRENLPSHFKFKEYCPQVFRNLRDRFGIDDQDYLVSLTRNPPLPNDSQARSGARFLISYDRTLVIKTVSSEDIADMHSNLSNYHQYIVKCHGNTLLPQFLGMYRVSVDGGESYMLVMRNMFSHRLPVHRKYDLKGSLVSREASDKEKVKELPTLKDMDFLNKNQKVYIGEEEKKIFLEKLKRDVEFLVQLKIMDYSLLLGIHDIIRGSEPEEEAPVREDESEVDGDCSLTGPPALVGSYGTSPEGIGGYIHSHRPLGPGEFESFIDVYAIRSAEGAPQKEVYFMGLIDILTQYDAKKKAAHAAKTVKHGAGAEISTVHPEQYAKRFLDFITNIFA

PI5P4Kα [3] = target: T1, PI5P4Kα; conditions: for PI5P4Kα pIC50: ADP-Glo, footnote a: inconsistent replicates, value shown is upper limit; for ADP-Glo pIC50 PI5P4Kα: Table S1, two decimals, asterisk not explained
PI5P4Kγ+ [4] = conditions: ratio PI5P4Kα IC50 / PI5P4Kγ+ IC50, ADP-Glo
[5] = ADP-Glo pIC50 PI5P4Kα, Table S1, two decimals, asterisk not explained
[6] = ADP-Glo pIC50 PI5P4Kγ+, Table S1, two decimals, asterisk not explained
[7] = PI5P4Kγ+ pIC50, ADP-Glo, footnote a: inconsistent replicates, value shown is upper limit

Compound	IC50 (PI5P4Kα [1]; [5])	IC50 (PI5P4Kγ+ [2]; [6])	PI5P4Kα pIC50 (PI5P4Kα [3])	ADP-Glo pIC50 PI5P4Kα (PI5P4Kα [3])	Fold-selectivity (α IC50/γ IC50) (PI5P4Kγ+ [4])	IC50 (PI5P4Kγ+ [2]; [7])	IC50 (PI5P4Kα [1]; PI5P4Kα pIC50, ADP-Glo, footnote a: inconsistent replicates, value shown is upper limit)
CSc1ccc(Nc2ncnc3sc(-c4cncnc4)cc23)cc1 [CSc1ccc(cc1)Nc1ncnc2sc(cc12)-c1cncnc1]	0.234 µM	0.0295 µM					
Cc1cccc(Nc2ncnc3sc(-c4cccnc4Cl)cc23)c1 [Cc1cccc(c1)Nc1ncnc2sc(cc12)-c1cccnc1Cl]	1.45 µM	2.34 µM					
Cc1ncccc1-c1cc2ncnc(Nc3ccc4ncoc4c3)c2s1 [Compound 41]		0.562 µM	5.5	5.48	5.9	0.501 µM	
CC(=O)N(C)c1ccc(Nc2ncnc3sc(C)cc23)cc1 [CN(C(=O)C)c1ccc(cc1)Nc1ncnc2sc(cc12)C]	1.12 µM						
N#Cc1cc2c(Nc3ccc(S(=O)(=O)C4CCCC4)cc3)ncnc2s1	4.68 µM	0.049 µM					
Cc1csc2ncnc(Nc3ccc(S(C)(=O)=O)cc3)c12 [Compound 31]			<4.3		>980	0.0501 µM	
CS(=O)(=O)c1ccc(Nc2ncnc3sc(-c4cccnc4F)cc23)cc1 [Compound 16]	1.48 µM				50	0.0316 µM	≥ 1.58 µM
COc1cnccc1-c1cc2ncnc(Nc3ccc(SC)cc3)c2s1 [COc1cnccc1-c1cc2ncnc(c2s1)Nc1ccc(cc1)SC]	0.49 µM	0.0537 µM					
COc1cnccc1-c1cc2c(Nc3ccc(SC)cc3)ncnc2s1 [COc1cnccc1-c1cc2c(ncnc2s1)Nc1ccc(cc1)SC]	0.129 µM	0.0151 µM					
Cc1cc2c(Nc3ccc(N4CCCC4=O)c(C)c3)ncnc2s1 [Cc1cc2c(ncnc2s1)Nc1ccc(c(c1)C)N1CCCC1=O]	5.37 µM	0.2 µM					
CS(=O)(=O)c1ccc(Nc2ncnc3sc(-c4ccncc4F)cc23)cc1 [Compound 12]			<4.6		>250	0.1 µM	
Cc1ccc(Nc2ncnc3sc(-c4cccnc4C)cc23)c(C)c1 [Compound 19]		4.37 µM	5.5	5.48	0.79	3.98 µM	
Cc1ccc(Nc2ncnc3sc(-c4cccnc4C)cc23)cc1C [Compound 18]		1.35 µM	6.5	6.48	0.25	1.26 µM	
Cc1cc2c(Nc3ccc(S(=O)(=O)C4CC4)cc3)ncnc2s1	7.76 µM	0.0759 µM					
Cc1ccc(Nc2ncnc3sc(-c4cccnc4Cl)cc23)cc1 [Cc1ccc(cc1)Nc1ncnc2sc(cc12)-c1cccnc1Cl]	0.263 µM	0.427 µM					
Cc1ccc(Nc2ncnc3sc(-c4cccnc4Cl)cc23)c(C)c1	2.95 µM	8.32 µM					
CSc1ccc(Nc2ncnc3sc(C)cc23)cc1 [CSc1ccc(cc1)Nc1ncnc2sc(cc12)C]	2.34 µM	0.178 µM					
CC(=O)NCc1cc2c(Nc3ccc(S(=O)(=O)C4CCCC4)cc3)ncnc2s1	4.37 µM	0.0126 µM					
Cc1cc2c(Nc3ccc(N4CC(C)(C)CC4=O)cc3)ncnc2s1	1.17 µM	0.132 µM					
Cc1cc(Nc2ncnc3sc(-c4cccnc4Cl)cc23)ccc1Cl [Cc1cc(ccc1Cl)Nc1ncnc2sc(cc12)-c1cccnc1Cl]	2.95 µM	0.389 µM					
CN(C)C(=O)c1cc2c(Nc3ccc(S(C)(=O)=O)cc3)ncnc2s1	6.92 µM	0.562 µM					
Clc1ncccc1-c1cc2c(Nc3ccc(C4CC4)cc3)ncnc2s1	0.195 µM	0.0676 µM					
CSc1ccc(Nc2ncnc3cc(-c4cccnc4C)sc23)cc1 [CSc1ccc(cc1)Nc1ncnc2cc(sc12)-c1cccnc1C]	0.0776 µM	0.017 µM					
CS(=O)(=O)c1ccc(Nc2ncnc3sc(-c4ccc(F)cc4F)cc23)cc1	1.1 µM	0.0851 µM					
Cc1ccc(Nc2ncnc3sc(-c4cccnc4Cl)cc23)cc1C [Cc1ccc(cc1C)Nc1ncnc2sc(cc12)-c1cccnc1Cl]	0.49 µM	8.51 µM					
COc1cnccc1-c1cc2c(Nc3ccc(Cl)cc3)ncnc2s1 [COc1cnccc1-c1cc2c(ncnc2s1)Nc1ccc(cc1)Cl]	1.32 µM	0.0631 µM					
